The experiment has as its system HCT-116. As to the kind of experiment: Cytotoxicity against human HCT116 cells after 72 hrs by MTS assay. The class given is functional, cell-based. As to conditions: HCT-116, 72 h. (In general: Formazan colour is commonly taken as a measure of viable cells.)

Usually IC50 stands for the concentration that gives 50% inhibition. High values mean lower potency, low ones higher potency.

The structures appear in SMILES notation.

On to `CC(C)=CCC[C@]1(C)[C@@H](CC=C(C)C)C[C@@]2(CC=C(C)C)C(=O)c3c(oc4cc(O)c(O)cc4c3=O)[C@]1(CC=C(C)C)C2=O`, for which 8 µM corresponded to half-maximal inhibition (IC50).

For the compound `CC(C)=CCC[C@]1(C)[C@@H](CC=C(C)C)C[C@]2(CC=C(C)C)C(=O)[C@@]1(CC=C(C)C)C(=O)c1c2oc2cc(O)c(O)cc2c1=O`, the half-inhibitory concentration (IC50) stood at 3 µM.

These data come from ChEMBL document CHEMBL3593183, “Polycyclic Polyprenylated Xanthones from Symphonia globulifera: Isolation and Biomimetic Electrosynthesis” (J Nat Prod, 2015).
